Results as given in patent US20100324285A1, “ANTIINFLAMMATORY AGENT COMPRISING 2-AMINOPHENOL OR DERIVATIVE THEREOF AS ACTIVE INGREDIENT” (priority 2006, published 2010).

Key:
COX-1 = biological target: T1, COX-1 (Ovis aries, UniProt P05979); test: COX Inhibitor Screening Assay Kit, COX-1; assay type: biochemical
T1 construct: purchased Cayman Chemical Company
T1 sequence (P05979 25-600): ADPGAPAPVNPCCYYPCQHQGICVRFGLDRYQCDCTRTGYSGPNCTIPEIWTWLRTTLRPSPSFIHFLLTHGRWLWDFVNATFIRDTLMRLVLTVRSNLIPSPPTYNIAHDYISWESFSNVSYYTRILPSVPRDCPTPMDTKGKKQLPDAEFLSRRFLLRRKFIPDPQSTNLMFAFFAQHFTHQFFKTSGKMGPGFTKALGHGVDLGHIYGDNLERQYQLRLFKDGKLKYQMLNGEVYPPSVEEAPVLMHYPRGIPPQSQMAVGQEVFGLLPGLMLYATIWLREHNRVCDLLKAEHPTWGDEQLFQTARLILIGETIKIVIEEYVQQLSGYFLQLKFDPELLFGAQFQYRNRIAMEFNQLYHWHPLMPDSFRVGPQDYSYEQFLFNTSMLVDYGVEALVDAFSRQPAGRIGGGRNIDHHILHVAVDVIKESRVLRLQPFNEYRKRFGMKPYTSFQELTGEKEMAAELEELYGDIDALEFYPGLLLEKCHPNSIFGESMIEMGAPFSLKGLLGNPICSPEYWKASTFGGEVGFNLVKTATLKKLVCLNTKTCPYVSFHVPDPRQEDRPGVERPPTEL
From the text: Fifty percent inhibitory concentration (IC50) means the concentration of test sample necessary for inhibiting PGE2 synthesis by 50% compared to non-inhibitory control sample. It can be also determined by measuring the amount of PGE2 produced by adding test samples to cells having cyclooxygenase activity. COX-1/COX-2 ratio means the ratio of […], and the higher the ratio is, the more specific to COX-2 the agent is.
To verify the results of Experiment 2, it was investigated that whether the activity of COXs, essential enzymes for PGE2 synthesis system, can be inhibited. […] An experimental system without the test samples was set as control. The residual activity of COX-1 or COX-2 was determined as relative activity versus control.

[1] = system: Mouse melanoma cell line B16; test: Melanin synthesis in B16 cells; assay type: cell-based; conditions: 5 days, per mg protein versus control
Protocol: (§1) As control, a system with no test sample was provided. […] The amount of protein was measured by conventional Bradfordmethod and the amount of melanin per 1 mg of protein was calculated. The amount of melanin (%) was calculated according to Formula 4, and the living cell rate (%) was calculated according to Formula 5.
As control, a system with no test sample was provided. […] The amount of protein was measured by conventional Bradford method and the amount of melanin per 1 mg of protein was calculated. The amount of melanin (%) was calculated according to Formula 4.

[2] = system: Mouse melanoma cell line B16; test: Living cell rate of B16 cells; conditions: 5 days, versus control
Protocol: as §1

[3] = read-out: residual activity of COX-1

Nc1cc2nc3ccccc3oc-2cc1=O [2-Aminophenoxazine-3-one, 2-aminophenoxazine-3-one]
IC50 (COX-1; PGE2 from arachidonic acid, read-out: IC50 COX-1): 6.44 µM
remaining activity at 1.9 µM (COX-1; [3]): 89%
remaining activity at 3.8 µM (COX-1; [3]): 59%
remaining activity at 7.6 µM (COX-1; [3]): 44%
Amount of melanin (%) ([1]; 0.5 μM): 74%
Amount of melanin (%) ([1]; 1 μM): 69%
Amount of melanin (%) ([1]; 2 μM): 61%
Living cell rate (%) ([2]; 0.5 μM): 107%
Living cell rate (%) ([2]; 1 μM): 95%
Living cell rate (%) ([2]; 2 μM): 77%
